# Reference: US10040781B2, “Tank-binding kinase inhibitor compounds” (Gilead Sciences, Inc., priority 2014, dated 2018)
# Where two headings read alike, the source gives them in different places.
# Key:
# IKKε = IKKε (Homo sapiens (Human), UniProt Q14164); experiment: IKKε TR-FRET enzymatic assay; format: biochemical
# TBK1 = TBK1 (Homo sapiens (Human), UniProt Q9UHD2); experiment: TBK1 TR-FRET enzymatic assay;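 also: phosphorylation of a biotinylated Ser/Thr peptide by purified full-length recombinant TBK1, read by TR-FRET after 240 min at 25 °C, IC50 is the geometric mean of at least four runs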
# TBK1, sequence (Q9UHD2 whole entry): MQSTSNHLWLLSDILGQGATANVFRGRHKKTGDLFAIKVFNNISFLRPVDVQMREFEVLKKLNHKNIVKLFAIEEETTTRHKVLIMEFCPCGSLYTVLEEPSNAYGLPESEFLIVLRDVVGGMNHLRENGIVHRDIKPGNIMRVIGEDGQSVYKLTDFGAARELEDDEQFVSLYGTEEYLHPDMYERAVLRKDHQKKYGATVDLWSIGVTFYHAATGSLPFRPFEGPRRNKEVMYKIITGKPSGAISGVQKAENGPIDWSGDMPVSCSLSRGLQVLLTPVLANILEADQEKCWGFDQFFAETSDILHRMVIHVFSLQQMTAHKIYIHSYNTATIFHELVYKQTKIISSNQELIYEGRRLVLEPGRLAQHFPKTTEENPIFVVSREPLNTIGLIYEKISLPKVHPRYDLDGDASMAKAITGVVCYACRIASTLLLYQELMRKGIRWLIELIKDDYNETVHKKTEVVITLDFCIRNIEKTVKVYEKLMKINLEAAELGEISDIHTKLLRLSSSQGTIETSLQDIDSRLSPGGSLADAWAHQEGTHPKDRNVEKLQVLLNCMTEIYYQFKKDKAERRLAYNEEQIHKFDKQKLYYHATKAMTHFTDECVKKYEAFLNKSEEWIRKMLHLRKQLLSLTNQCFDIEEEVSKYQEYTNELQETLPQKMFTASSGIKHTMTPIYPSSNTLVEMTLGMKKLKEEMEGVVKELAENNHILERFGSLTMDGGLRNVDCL
# Protocol: Enzymatic activity of IKKε and TBK1 was measured using a homogeneous time resolved fluorescence resonance energy transfer (TR-FRET) assay that monitors enzyme dependent phosphorylation of a biotinylated serine/threonine peptide substrate. […] TBK1 and IKKε were expressed and purified as full length recombinant proteins. Detection reagents for the assay were purchased from Cisbio. […] After an assay reaction time of 240 minutes at 25° C., reactions were terminated with EDTA.
# All IC50 values represent geometric mean values of a minimum of four determinations.
# hJAK2 = hJAK2 (Homo sapiens (Human), UniProt O60674); experiment: hJAK2 LANCE TR-FRET enzymatic assay; format: biochemical; details: read-out: JAK2 IC50
# hJAK2, sequence (O60674 whole entry): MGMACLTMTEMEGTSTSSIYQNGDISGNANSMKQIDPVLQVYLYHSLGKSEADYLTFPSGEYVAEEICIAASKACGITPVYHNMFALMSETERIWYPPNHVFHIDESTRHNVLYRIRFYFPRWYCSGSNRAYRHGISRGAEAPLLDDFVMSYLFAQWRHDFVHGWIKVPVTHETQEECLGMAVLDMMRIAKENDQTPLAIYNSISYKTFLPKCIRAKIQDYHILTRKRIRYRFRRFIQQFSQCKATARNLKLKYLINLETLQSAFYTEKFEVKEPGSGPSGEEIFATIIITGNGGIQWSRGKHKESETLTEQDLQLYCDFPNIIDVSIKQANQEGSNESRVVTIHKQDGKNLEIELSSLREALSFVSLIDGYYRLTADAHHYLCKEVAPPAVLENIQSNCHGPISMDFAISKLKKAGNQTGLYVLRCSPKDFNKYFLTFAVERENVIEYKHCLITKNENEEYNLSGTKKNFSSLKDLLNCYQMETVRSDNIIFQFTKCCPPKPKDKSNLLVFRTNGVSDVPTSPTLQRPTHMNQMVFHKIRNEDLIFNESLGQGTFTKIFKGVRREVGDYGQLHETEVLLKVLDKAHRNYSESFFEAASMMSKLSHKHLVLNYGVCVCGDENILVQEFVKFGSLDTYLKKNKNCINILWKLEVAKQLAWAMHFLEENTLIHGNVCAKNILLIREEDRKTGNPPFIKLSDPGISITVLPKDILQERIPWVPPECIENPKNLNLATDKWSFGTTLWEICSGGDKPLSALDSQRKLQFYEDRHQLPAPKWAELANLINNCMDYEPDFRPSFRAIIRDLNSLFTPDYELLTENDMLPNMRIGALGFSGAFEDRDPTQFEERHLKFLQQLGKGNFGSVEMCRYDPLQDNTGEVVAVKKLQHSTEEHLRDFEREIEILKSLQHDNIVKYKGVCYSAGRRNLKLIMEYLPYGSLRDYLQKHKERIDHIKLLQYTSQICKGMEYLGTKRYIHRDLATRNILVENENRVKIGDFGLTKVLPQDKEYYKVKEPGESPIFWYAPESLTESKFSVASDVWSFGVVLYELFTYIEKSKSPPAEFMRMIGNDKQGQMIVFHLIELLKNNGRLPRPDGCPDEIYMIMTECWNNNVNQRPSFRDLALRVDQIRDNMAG
# IKKε, sequence (Q14164 whole entry): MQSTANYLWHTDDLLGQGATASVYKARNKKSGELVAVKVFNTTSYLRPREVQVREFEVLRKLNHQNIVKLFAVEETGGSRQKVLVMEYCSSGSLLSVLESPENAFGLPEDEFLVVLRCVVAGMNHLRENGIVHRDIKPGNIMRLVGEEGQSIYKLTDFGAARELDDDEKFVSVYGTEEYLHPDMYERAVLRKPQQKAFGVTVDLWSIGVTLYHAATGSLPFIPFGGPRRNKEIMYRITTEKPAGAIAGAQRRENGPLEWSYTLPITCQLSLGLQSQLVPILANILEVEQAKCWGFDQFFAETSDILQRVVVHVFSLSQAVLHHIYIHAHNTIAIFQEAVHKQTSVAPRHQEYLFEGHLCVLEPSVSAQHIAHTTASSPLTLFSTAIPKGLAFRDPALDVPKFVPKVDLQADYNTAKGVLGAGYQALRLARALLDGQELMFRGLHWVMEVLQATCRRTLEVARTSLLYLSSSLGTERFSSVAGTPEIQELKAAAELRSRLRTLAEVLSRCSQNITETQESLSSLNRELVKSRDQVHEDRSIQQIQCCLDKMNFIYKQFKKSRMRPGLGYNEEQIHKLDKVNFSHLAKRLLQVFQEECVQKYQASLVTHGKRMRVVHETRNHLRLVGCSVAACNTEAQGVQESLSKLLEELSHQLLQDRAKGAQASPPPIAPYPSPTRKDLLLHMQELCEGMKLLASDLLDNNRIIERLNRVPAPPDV
Compound,IC50 (IKKε; read-out: IKKe IC50) [nM],IC50 (hJAK2) [nM],IC50 (TBK1) [nM],IC50 (IKKε; IKKe IC50) [nM],IC50 (TBK1; TBK1 IC50) [nM]
"N#Cc1cc(-c2ncnc(Nc3ccc(N4CCN(C5COC5)CC4)cc3)n2)ccc1O[C@@H]1CCN(C(=O)CO)C[C@@H]1F (racemic) [Example 218, 2-((cis-3-fluoro-1-(2-hydroxyacetyl)piperidin-4-yl)oxy)-5-(4-((4-(4-(oxetan-3-yl)piperazin-1-yl)phenyl)amino)-1,3,5-triazin-2-yl)benzonitrile]",3,,,,
"N#Cc1cc(-c2ncnc(Nc3ccc(N4CCN(C5COC5)CC4)cc3)n2)ccc1OC1CC[S+]([O-])CC1 (single isomer, unassigned) [Example 25, 5-(4-((4-(4-(oxetan-3-yl)piperazin-1-yl)phenyl)amino)-1,3,5-triazin-2-yl)-2-((1-oxidotetrahydro-2H-thiopyran-4-yl)oxy)benzonitrile]",,,,73,21
"N#Cc1cc(-c2ncnc(Nc3ccc(N4CCN(C5COC5)CC4)cc3)n2)ccc1O[C@@H]1CCN(C(=O)CO)C[C@@H]1F [Example 224, 2-(((3S,4R)-3-fluoro-1-(2-hydroxyacetyl)piperidin-4-yl)oxy)-5-(4-((4-(4-(oxetan-3-yl)piperazin-1-yl)phenyl)amino)-1,3,5-triazin-2-yl)benzonitrile]",23,,,,
"N#Cc1cc(-c2ncnc(Nc3ccc(N4CCN(C5COC5)CC4)cc3)n2)ccc1O[C@@H]1CCN(C(=O)CO)C[C@H]1F [Example 235, 2-(((3R,4R)-3-fluoro-1-(2-hydroxyacetyl)piperidin-4-yl)oxy)-5-(4-((4-(4-(oxetan-3-yl)piperazin-1-yl)phenyl)amino)-1,3,5-triazin-2-yl)benzonitrile]",5,,,,
"N#Cc1cc(-c2ncnc(Nc3ccc(C4CCN(C5COC5)CC4)cc3)n2)ccc1OC1CCS(=O)(=O)CC1 [Example 270, 2-((1,1-dioxidotetrahydro-2H-thiopyran-4-yl)oxy)-5-(4-((4-(1-(oxetan-3-yl)piperidin-4-yl)phenyl)amino)-1,3,5-triazin-2-yl)benzonitrile]",43,,,,
"Cc1cc(Nc2ncnc(-c3ccc(O[C@H]4CCN(C=O)CC4(F)F)c(C#N)c3)n2)ccc1C1CCNCC1 [Example 303, (S)-2-((3,3-difluoro-1-formylpiperidin-4-yl)oxy)-5-(4-((3-methyl-4-(piperidin-4-yl)phenyl)amino)-1,3,5-triazin-2-yl)benzonitrile]",,290,1,,
"N#Cc1cc(-c2ncnc(Nc3ccc(C4CCN(C5COC5)CC4)cc3)n2)ccc1O[C@H]1CCN(C(=O)CO)C[C@H]1F [Example 305, 2-(((3R,4S)-3-fluoro-1-(2-hydroxyacetyl)piperidin-4-yl)oxy)-5-(4-((4-(1-(oxetan-3-yl)piperidin-4-yl)phenyl)amino)-1,3,5-triazin-2-yl)benzonitrile]",,292,2,,
"N#Cc1cc(-c2ncnc(Nc3ccc(C4CCN(C5COC5)CC4)cc3)n2)ccc1O[C@H]1CCN(C(=O)c2ccn[nH]2)C[C@H]1F [Example 318, 2-(((3R,4S)-3-fluoro-1-(1H-pyrazole-5-carbonyl)piperidin-4-yl)oxy)-5-(4-((4-(1-(oxetan-3-yl)piperidin-4-yl)phenyl)amino)-1,3,5-triazin-2-yl)benzonitrile]",,≥ 1000,2,,
"C[C@H](O)C(=O)N1CC[C@H](Oc2ccc(-c3ncnc(Nc4ccc(N5C6COCC5C6)cc4)n3)cc2C#N)[C@H](F)C1 [Example 366, 5-(4-((4-(3-oxa-6-azabicyclo[3.1.1]heptan-6-yl)phenyl)amino)-1,3,5-triazin-2-yl)-2-(((3R,4S)-3-fluoro-1-((S)-2-hydroxypropanoyl)piperidin-4-yl)oxy)benzonitrile]",,531,,,3
"N#CCC(=O)N1CC[C@H](Oc2ccc(-c3ncnc(Nc4ccc(N5CCN(C6COC6)CC5)c(F)c4)n3)cc2C#N)[C@H](F)C1 [Example 404, 2-(((3R,4S)-1-(2-cyanoacetyl)-3-fluoropiperidin-4-yl)oxy)-5-(4-((3-fluoro-4-(4-(oxetan-3-yl)piperazin-1-yl)phenyl)amino)-1,3,5-triazin-2-yl)benzonitrile]",,457,3,,
"COc1cc(Nc2ncnc(-c3ccc(O[C@H]4CCN(C(=O)CO)C[C@H]4F)c(C#N)c3)n2)ccc1N1CCN(C)C[C@@H]1C [Example 508, 5-(4-((4-((S)-2,4-dimethylpiperazin-1-yl)-3-methoxyphenyl)amino)-1,3,5-triazin-2-yl)-2-(((3R,4S)-3-fluoro-1-(2-hydroxyacetyl)piperidin-4-yl)oxy)benzonitrile]",,49,2,,
"C[C@H]1OC(=O)N[C@@H]1C(=O)N1CC[C@H](Oc2ccc(-c3ncnc(Nc4ccc(N5CCN(C6COC6)CC5)cc4)n3)cc2C#N)[C@H](F)C1 [Example 523, 2-(((3R,4S)-3-fluoro-1-((4S,5R)-5-methyl-2-oxooxazolidine-4-carbonyl)piperidin-4-yl)oxy)-5-(4-((4-(4-(oxetan-3-yl)piperazin-1-yl)phenyl)amino)-1,3,5-triazin-2-yl)benzonitrile]",,811,10,,
"N#Cc1cc(-c2ncnc(Nc3ccc(N4CCN(C5COC5)CC4)cc3)n2)ccc1OCCCN1CCCC1=O [Example 600, 5-(4-((4-(4-(oxetan-3-yl)piperazin-1-yl)phenyl)amino)-1,3,5-triazin-2-yl)-2-(3-(2-oxopyrrolidin-1-yl)propoxy)benzonitrile]",,≥ 1000,517,,

# Continued, in another order:
IC50 (IKKε; read-out: IKKe IC50) [nM],IC50 (hJAK2) [nM],IC50 (TBK1) [nM],Compound,IC50 (IKKε; IKKe IC50) [nM],IC50 (TBK1; TBK1 IC50) [nM]
3,,,"N#Cc1cc(-c2ncnc(Nc3ccc(N4CCO[C@@H](CO)C4)cc3)n2)ccc1OC1CCOCC1 [Example 107, (R)-5-(4-((4-(2-(hydroxymethyl)morpholino)phenyl)amino)-1,3,5-triazin-2-yl)-2-((tetrahydro-2H-pyran-4-yl)oxy)benzonitrile]",,
,≥ 1000,2,"Cc1cc(Nc2ncnc(-c3ccc(O[C@H]4CCN(C=O)CC4(F)F)c(C#N)c3)n2)ccc1C1CCN(C)CC1 [Example 304, (S)-2-((3,3-difluoro-1-formylpiperidin-4-yl)oxy)-5-(4-((3-methyl-4-(1-methylpiperidin-4-yl)phenyl)amino)-1,3,5-triazin-2-yl)benzonitrile]",,
,28,2,"COc1cc(Nc2ncnc(-c3ccc(O[C@H]4CCN(C(=O)CO)C[C@H]4F)c(C#N)c3)n2)ccc1N1CCC(N2CCOCC2)CC1 [Example 325, 2-(((3R,4S)-3-fluoro-1-(2-hydroxyacetyl)piperidin-4-yl)oxy)-5-(4-((3-methoxy-4-(4-morpholinopiperidin-1-yl)phenyl)amino)-1,3,5-triazin-2-yl)benzonitrile]",,
,78,3,"Cc1nnc(C(=O)N2CC[C@H](Oc3ccc(-c4ncnc(Nc5ccc(C6CCN(C)CC6)c(C)c5)n4)cc3C#N)[C@H](F)C2)[nH]1 [Example 490, 2-(((3R,4S)-3-fluoro-1-(5-methyl-4H-1,2,4-triazole-3-carbonyl)piperidin-4-yl)oxy)-5-(4-((3-methyl-4-(1-methylpiperidin-4-yl)phenyl)amino)-1,3,5-triazin-2-yl)benzonitrile]",,
,358,1,"C[C@H](O)C(=O)N1CC[C@H](Oc2ccc(-c3ncnc(Nc4ccc(N5CCNCC5)cc4)n3)cc2C#N)[C@H](F)C1 [Example 497, 2-(((3R,4S)-3-fluoro-1-((S)-2-hydroxypropanoyl)piperidin-4-yl)oxy)-5-(4-((4-(piperazin-1-yl)phenyl)amino)-1,3,5-triazin-2-yl)benzonitrile]",,
,389,2,"C[C@H](O)C(=O)N1CC[C@H](Oc2ccc(-c3ncnc(Nc4ccc(N5CCN(C)CC5)cc4)n3)cc2C#N)[C@H](F)C1 [Example 498, 2-(((3R,4S)-3-fluoro-1-((S)-2-hydroxypropanoyl)piperidin-4-yl)oxy)-5-(4-((4-(4-methylpiperazin-1-yl)phenyl)amino)-1,3,5-triazin-2-yl)benzonitrile]",,
,182,2,"C[C@H]1CN(C)CCN1c1ccc(Nc2ncnc(-c3ccc(O[C@H]4CCN(C(=O)CO)C[C@H]4F)c(C#N)c3)n2)cc1 [Example 500, 5-(4-((4-((S)-2,4-dimethylpiperazin-1-yl)phenyl)amino)-1,3,5-triazin-2-yl)-2-(((3R,4S)-3-fluoro-1-(2-hydroxyacetyl)piperidin-4-yl)oxy)benzonitrile]",,
,457,2,"C[C@H](O)C(=O)N1CC[C@H](Oc2ccc(-c3ncnc(Nc4ccc(N5CCN(C)C[C@@H]5C)cc4)n3)cc2C#N)[C@H](F)C1 [Example 501, 5-(4-((4-((S)-2,4-dimethylpiperazin-1-yl)phenyl)amino)-1,3,5-triazin-2-yl)-2-(((3R,4S)-3-fluoro-1-((S)-2-hydroxypropanoyl)piperidin-4-yl)oxy)benzonitrile]",,
,355,2,"C[C@H]1CN(C)CCN1c1ccc(Nc2ncnc(-c3ccc(O[C@H]4CCN(C(=O)[C@@H](O)CO)C[C@H]4F)c(C#N)c3)n2)cc1 [Example 515, 2-(((3R,4S)-1-((S)-2,3-dihydroxypropanoyl)-3-fluoropiperidin-4-yl)oxy)-5-(4-((4-((S)-2,4-dimethylpiperazin-1-yl)phenyl)amino)-1,3,5-triazin-2-yl)benzonitrile]",,
,≥ 1000,12,"COCCNc1ccc(Nc2ncnc(-c3ccc(O[C@H]4CCN(C(=O)[C@H](C)O)C[C@H]4F)c(C#N)c3)n2)cn1 [Example 543, 2-(((3R,4S)-3-fluoro-1-((S)-2-hydroxypropanoyl)piperidin-4-yl)oxy)-5-(4-((6-((2-methoxyethyl)amino)pyridin-3-yl)amino)-1,3,5-triazin-2-yl)benzonitrile]",,
,≥ 1000,466,"CN1CCN(C(=O)N(C)CCOc2ccc(-c3ncnc(Nc4ccc(N5CCN(C6COC6)CC5)cc4)n3)cc2C#N)CC1 [Example 603, N-(2-(2-cyano-4-(4-((4-(4-(oxetan-3-yl)piperazin-1-yl)phenyl)amino)-1,3,5-triazin-2-yl)phenoxy)ethyl)-N,4-dimethylpiperazine-1-carboxamide]",,
